One block for each molecule: values may come before it.
Assay: Evaluation of solubility in organic solvents (visual observation of complete dissolution)
Assay type: physicochemical
Method: [Evaluation of Solubility]
The evaluation of the solubility of the synthesized compound was conducted by the following method.
About 2-3 mg of the compound was precisely weighed, and each solvent was added to the compound such that a predetermined concentration of the solute (0.5 wt %, 0.3 wt %, 0.2 wt %, 0.1 wt %, 0.05 wt %, or 0.03 wt %) was reached. The resultant mixture was stirred for 30 minutes at a predetermined temperature, and then it was evaluated by visual appearance observation whether or not the solute (synthesized compound) was completely dissolved in the solvent, which was the result of the evaluation of the solubility. As the solvent, chloroform (boiling point 61° C.), toluene (boiling point 111° C.), xylene (boiling point 144° C.), mesitylene (boiling point 165° C.), chlorobenzene (boiling point 130° C.), para-chlorotoluene (boiling point 162° C.), and ortho-dichlorobenzene (boiling point 181° C.) were used.

SMILES: CCCCCCCCc1ccc(-c2ccc(-c3c4c(c(-c5ccc(-c6ccc(CCCCCCCC)c(C#N)c6)s5)c5nsnc35)N=S=N4)s2)cc1C#N [Compound (C26), 4,8-bis[5-(3-cyano-4-octylphenyl)thiophene-2-yl]benzo[1,2-c:4,5-c′]bis[1,2,5]thiadiazole]
solubility (solute concentration completely dissolved) (1-methylnaphthalene, 60° C.): ≥ 0.3 wt %
solubility (solute concentration completely dissolved) (chloroform, 25° C. (room temperature)): ≥ 0.2 wt %
solubility (solute concentration completely dissolved) (mesitylene, 80° C.): ≥ 0.3 wt %
solubility (solute concentration completely dissolved) (ortho-dichlorobenzene, 60° C.): ≥ 0.3 wt %
solubility (solute concentration completely dissolved) (toluene, 80° C.): ≥ 0.3 wt %

SMILES: FC(F)(F)c1cccc(-c2ccc(-c3c4c(c(-c5ccc(-c6cccc(C(F)(F)F)c6)s5)c5nsnc35)N=S=N4)s2)c1 [Compound (C2), 4,8-bis[5-(3-(trifluoromethyl)phenyl)thiophene-2-yl]benzo[1,2-c:4,5-c′]bis[1,2,5]thiadiazole]
solubility (solute concentration completely dissolved) (chlorobenzene, 80° C.): ≥ 0.1 wt %
solubility (solute concentration completely dissolved) (chlorobenzene, 100° C.): ≥ 0.3 wt %
solubility (solute concentration completely dissolved) (mesitylene, 25° C.): ≥ 0.03 wt %
solubility (solute concentration completely dissolved) (mesitylene, 80° C.): ≥ 0.1 wt %
solubility (solute concentration completely dissolved) (ortho-dichlorobenzene, 80° C.): ≥ 0.1 wt %
solubility (solute concentration completely dissolved) (ortho-dichlorobenzene, 100° C.): ≥ 0.5 wt %
solubility (solute concentration completely dissolved) (toluene, 25° C.): ≥ 0.03 wt %
solubility (solute concentration completely dissolved) (toluene, 100° C.): ≥ 0.1 wt %

SMILES: CCCCCCCCCCCCc1cc(-c2ccc(-c3c4c(c(-c5ccc(-c6ccc(C#N)c(CCCCCCCCCCCC)c6)s5)c5nsnc35)N=S=N4)s2)ccc1C#N [Compound (C17), 4,8-bis[5-(4-cyano-3-dodecylphenyl)thiophene-2-yl]benzo[1,2-c:4,5-c′]bis[1,2,5]thiadiazole]
solubility (solute concentration completely dissolved) (chlorobenzene, 80° C.): ≥ 0.3 wt %
solubility (solute concentration completely dissolved) (chloroform, 60° C.): ≥ 0.2 wt %
solubility (solute concentration completely dissolved) (ortho-dichlorobenzene, 60° C.): ≥ 0.3 wt %
solubility (solute concentration completely dissolved) (para-chlorotoluene, 80° C.): ≥ 0.3 wt %
solubility (solute concentration completely dissolved) (xylene, 100° C.): ≥ 0.3 wt %

SMILES: CCCCCCCCCCCCc1cc(-c2ccc(-c3c4c(c(-c5ccc(-c6ccc(C(F)(F)F)c(CCCCCCCCCCCC)c6)s5)c5nsnc35)N=S=N4)s2)ccc1C(F)(F)F [Compound (C27), 4,8-bis[5-(3-dodecyl-4-(trifluoromethyl)phenyl)thiophene-2-yl]benzo[1,2-c:4,5-c′]bis[1,2,5]thiadiazole]
solubility (solute concentration completely dissolved) (1-methylnaphthalene, 60° C.): ≥ 0.3 wt %
solubility (solute concentration completely dissolved) (chloroform, 60° C.): ≥ 0.1 wt %
solubility (solute concentration completely dissolved) (mesitylene, 60° C.): ≥ 0.3 wt %
solubility (solute concentration completely dissolved) (ortho-dichlorobenzene, 60° C.): ≥ 0.3 wt %
solubility (solute concentration completely dissolved) (toluene, 60° C.): ≥ 0.3 wt %

SMILES: CCCCCCCCCCCCCCc1cc(-c2ccc(-c3c4c(c(-c5ccc(-c6ccc(C#N)c(CCCCCCCCCCCCCC)c6)s5)c5nsnc35)N=S=N4)s2)ccc1C#N [Compound (C18), 4,8-bis[5-(4-cyano-3-tetradecylphenyl)thiophene-2-yl]benzo[1,2-c:4,5-c′]bis[1,2,5]thiadiazole]
solubility (solute concentration completely dissolved) (1-methylnaphthalene, 80° C.): ≥ 0.3 wt %
solubility (solute concentration completely dissolved) (chlorobenzene, 100° C.): ≥ 0.3 wt %
solubility (solute concentration completely dissolved) (chloroform, 60° C.): ≥ 0.2 wt %
solubility (solute concentration completely dissolved) (ortho-dichlorobenzene, 80° C.): ≥ 0.3 wt %

SMILES: CCCC(C)CCc1cc(-c2ccc(-c3c4c(c(-c5ccc(-c6ccc(C#N)c(CCC(C)CCC)c6)s5)c5nsnc35)N=S=N4)s2)ccc1C#N (stereo not shown) [Compound (C21), 4,8-bis[5-(4-cyano-3-(3-methylhexyl)phenyl)thiophene-2-yl]benzo[1,2-c:4,5-c′]bis[1,2,5]thiadiazole]
solubility (solute concentration completely dissolved) (1-methylnaphthalene, 80° C.): ≥ 0.3 wt %
solubility (solute concentration completely dissolved) (chlorobenzene, 80° C.): ≥ 0.3 wt %
solubility (solute concentration completely dissolved) (chloroform, 60° C.): ≥ 0.2 wt %
solubility (solute concentration completely dissolved) (ortho-dichlorobenzene, 80° C.): ≥ 0.3 wt %

SMILES: CCCCCCc1ccc(-c2ccc(-c3c4c(c(-c5ccc(-c6ccc(CCCCCC)c(C#N)c6)s5)c5nsnc35)N=S=N4)s2)cc1C#N [Compound (C7), 4,8-bis[5-(3-cyano-4-hexylphenyl)thiophene-2-yl]benzo[1,2-c:4,5-c′]bis[1,2,5]thiadiazole]
solubility (solute concentration completely dissolved) (chlorobenzene, 25° C.): ≥ 0.1 wt %
solubility (solute concentration completely dissolved) (chlorobenzene, 60° C.): ≥ 0.5 wt %
solubility (solute concentration completely dissolved) (mesitylene, 60° C.): ≥ 0.1 wt %
solubility (solute concentration completely dissolved) (mesitylene, 80° C.): ≥ 0.5 wt %
solubility (solute concentration completely dissolved) (toluene, 60° C.): ≥ 0.1 wt %
solubility (solute concentration completely dissolved) (toluene, 100° C.): ≥ 0.5 wt %

SMILES: CCCCCCc1cc(-c2ccc(-c3c4c(c(-c5ccc(-c6ccc(C#N)c(CCCCCC)c6)s5)c5nsnc35)N=S=N4)s2)ccc1C#N [Compound (C8), 4,8-bis[5-(4-cyano-3-hexylphenyl)thiophene-2-yl]benzo[1,2-c:4,5-c′]bis[1,2,5]thiadiazole]
solubility (solute concentration completely dissolved) (chlorobenzene, 25° C.): ≥ 0.03 wt %
solubility (solute concentration completely dissolved) (chloroform, 60° C.): ≥ 0.05 wt %
solubility (solute concentration completely dissolved) (chloroform, 80° C.): ≥ 0.2 wt %
solubility (solute concentration completely dissolved) (ortho-dichlorobenzene, 25° C.): ≥ 0.03 wt %
solubility (solute concentration completely dissolved) (para-chlorotoluene, 100° C.): ≥ 0.3 wt %

The next lines start with the values.

solubility (solute concentration completely dissolved) (1-methylnaphthalene, 100° C.): ≥ 0.3 wt %
solubility (solute concentration completely dissolved) (chloroform, 80° C.): ≥ 0.1 wt %
solubility (solute concentration completely dissolved) (mesitylene, 100° C.): ≥ 0.3 wt %
solubility (solute concentration completely dissolved) (ortho-dichlorobenzene, 80° C.): ≥ 0.3 wt %
solubility (solute concentration completely dissolved) (toluene, 100° C.): ≥ 0.3 wt %
SMILES: CCCCCCCCCCCCc1ccc(-c2ccc(-c3c4c(c(-c5ccc(-c6ccc(CCCCCCCCCCCC)c(C(F)(F)F)c6)s5)c5nsnc35)N=S=N4)s2)cc1C(F)(F)F [Compound (C28), 4,8-bis[5-(4-dodecyl-3-(trifluoromethyl)phenyl)thiophene-2-yl]benzo[1,2-c:4,5-c′]bis[1,2,5]thiadiazole]

solubility (solute concentration completely dissolved) (chlorobenzene, 25° C.): ≥ 0.1 wt %
solubility (solute concentration completely dissolved) (mesitylene, 25° C.): ≥ 0.1 wt %
solubility (solute concentration completely dissolved) (ortho-dichlorobenzene, 25° C.): ≥ 0.1 wt %
solubility (solute concentration completely dissolved) (toluene, 25° C.): ≥ 0.1 wt %
SMILES: FC(F)(F)c1ccccc1-c1ccc(-c2c3c(c(-c4ccc(-c5ccccc5C(F)(F)F)s4)c4nsnc24)N=S=N3)s1 [Compound (RR2), 4,8-bis[5-(2-(trifluoromethyl)phenyl)thiophene-2-yl]benzo[1,2-c:4,5-c′]bis[1,2,5]thiadiazole, reference compound]

solubility (solute concentration completely dissolved) (chlorobenzene, 100° C.): < 0.03 wt %
solubility (solute concentration completely dissolved) (mesitylene, 100° C.): < 0.03 wt %
solubility (solute concentration completely dissolved) (mesitylene, 130° C.): < 0.3 wt %
solubility (solute concentration completely dissolved) (ortho-dichlorobenzene, 100° C.): < 0.03 wt %
solubility (solute concentration completely dissolved) (toluene, 100° C.): < 0.03 wt %
SMILES: FC(F)(F)Sc1ccc(-c2ccc(-c3c4c(c(-c5ccc(-c6ccc(SC(F)(F)F)cc6)s5)c5nsnc35)N=S=N4)s2)cc1 [Compound (RC5), 4,8-bis[5-(4-((trifluoromethyl)thio)phenyl)thiophene-2-yl]benzo[1,2-c:4,5-c′]bis[1,2,5]thiadiazole, reference compound]

solubility (solute concentration completely dissolved) (chlorobenzene, 100° C.): < 0.03 wt %
solubility (solute concentration completely dissolved) (mesitylene, 100° C.): < 0.03 wt %
solubility (solute concentration completely dissolved) (mesitylene, 130° C.): < 0.3 wt %
solubility (solute concentration completely dissolved) (ortho-dichlorobenzene, 100° C.): < 0.03 wt %
solubility (solute concentration completely dissolved) (toluene, 100° C.): < 0.03 wt %
SMILES: FC(F)(F)c1ccc(-c2ccc(-c3c4c(c(-c5ccc(-c6ccc(C(F)(F)F)cc6)s5)c5nsnc35)N=S=N4)s2)cc1 [Compound (RC2), 4,8-bis[5-(4-(trifluoromethyl)phenyl)thiophene-2-yl]benzo[1,2-c:4,5-c′]bis[1,2,5]thiadiazole, reference compound]
